In patent US20060002946A1, “Targeted immunogens” (Aventis Pasteur, Inc., priority 2003, published 2006):
“Also recorded” adds a separate entry of the source.

Columns and labels:
[1] = system: mice; assay: Summary of in vivo Immunogenicity Studies (Table IV); parameters: species or system mouse
[2] = system: P815-A2/K^b cells; assay: Sensitization of P815-A2/K^b target cells for CTL lysis, chromium release assay; type: cell-based, mouse
Procedure: (§1) FIG. 1. In vitro sensitization of target cells for peptide-specific lysis by hPER1 conjugates.
Further, ^51Cr-labeled P815-A2/K^b cells were pulsed with 10^−6 g/ml 280-9V peptide ([…]) or hPER1-280-9V ([…]) or were left untreated (no peptide) and incubated for 1 hour at 37° C. The cells were then washed and tested for CTL recognition in a standard 4-hour chromium release assay, using T cells obtained from the spleens of HLA-A2/K^b transgenic mice immunized with 280-9V peptide in incomplete Freund's adjuvant. Where indicated, 5 μg/ml brefeldin A (BFA) was included in the assay, to block the surface expression of nascent class I MHC molecules. […] The level of CTL killing is reduced if the hPER1-280-9V-pulsed target cells are treated with brefeldin A, which blocks the intracellular transport of newly synthesized MHC molecules.

[3] = system: PBMCs from an HLA-A2-positive patient; assay: In vitro induction of human CTL in PBMC culture, chromium release assay; type: cell-based; conditions: repeated in vitro stimulation, day 42, C1R-A2 target cells pulsed with 280-9V
Procedure: FIG. 2. In vitro induction of human T cell responses using a hPER1 conjugate peptide.
Peripheral blood mononuclear cells (PBMCs) from an HLA-A2-positive patient were cultured in the presence of IL-2 (50 U/ml), IL-7 (10 ng/ml), LPS (10 μg/ml), CD40-ligand expressing 3T3 cells, and peptide (10 μg/ml of 280-9V or hPER1-280-9V). On days 11, 22, and 32 the cells were restimulated by culturing in the presence of IL-2 (50 U/ml) and IL-7 (10 ng/ml) and autologous, CD40-ligand activated PBMCs pulsed with peptide (100 μg/ml of 280-9V or hPER1-280-9V) for 3 hours.

[4] = system: HLA-A2/K^b transgenic mice; assay: s.c. immunization without adjuvant, CTL assay (FIG. 3B); type: in vivo, mouse; conditions: 100 μg s.c. plus T-helper peptide, no adjuvant, boosts days 14 and 28
Excerpt: Mice were similarly boosted on days 14 and 28. […] Average responses from each group are shown.

[5] = system: C57BL/6 mice; assay: Immunization with […] conjugates, CTL assay (FIGS. 7, 9, 10); type: in vivo, mouse; conditions: for cytotoxicity levels, adjuvant free immunization: s.c. without adjuvant; for CTL responses / cytotoxicity, Tat versus hPER1 conjugates: s.c., DEVWEL linker, FIG. 7
Excerpt: FIG. 7. In vivo induction of T cell responses using hPER1 or Tat peptides conjugated to […] epitope. Mice were immunized subcutaneously with […] peptide associated to either Tat or hPER1 with the DEVWEL linker sequence. Results shown in this figure represent the mean value of 4 individual mice for each group.
FIG. 9. […] C57BL/6 mice were immunized intradermally with different doses of hPER1-SGQL-[…] with or without helper peptide.
FIG. 10. In vivo induction of immunity following adjuvant free peptide immunization with hPER1 associated to […] in the presence of different linker sequences.
(§2) In carrying out the experiments described in FIGS. 6 and 13, mice were immunized by the specified route with 50 nmol (if not specified otherwise) of peptide plus 50 nmol of a hepatitis B epitope in mice to serve as a helper CD4 peptide. Three weeks after the first injection a boost was carried out with the same regimen, and three weeks after that, spleens were harvested and homogenized to a single suspension. Whole splenocytes were placed into culture with 0.5 ug/ml of the epitope peptide and incubated at 37 degrees for five days. A CTL assay was conducted on day five of culture after Ficoll treatment to purify live cells. Controls that were used are matched Kb or A2 binding peptides.

[6] = system: A2/Kb mice; assay: Immunization with gp100-154 peptides plus or minus helper CD4 peptide, CTL assay (FIGS. 6, 8, 13); type: in vivo, mouse; conditions: for CTL responses / cytotoxicity at three weeks and three months: s.c. immunization, FIG. 13
Excerpt: Results shown represent the mean value of four individual mice for each group.
FIG. 8. The presence of a helper CD4 hepatitis B peptide is essential for the generation of CTL responses against a CD8 peptide. A2/Kb mice were inoculated intranasally with hPER1-FVYVW-154 peptide at different doses from 50 nmoles to 1 nmoles with or without helper peptide.
FIG. 13. Induction of long-term immunity following hPER1-FVYVW-gp100-154 peptide immunization. CTL responses in A2/Kb mice following 3 weeks or 3 months subcutaneous immunization with gp100-154 epitope alone or in association with hPER1-FVYVW. […] Short-term (3 weeks) as well as long-term (3 months) T cell responses are observed in 4/4 or ¾ mice respectively following hPEr1-FVYVW-154 immunization.
as §2

[7] = system: Splenocytes from C57BL/6 mice; assay: In vitro analysis of OVA ([…]) peptide presentation, IFN-γ ELISPOT (FIG. 11); type: cell-based, mouse; conditions: 10 ug/ml pulse 1 hour; for stimulatory activity of pulsed cells after 30 hours: 30 hours incubation, IFN-γ ELISPOT
Procedure: FIG. 11. In vitro analysis of OVA ([…]) peptide presentation. Splenocytes from C57BL/6 mice were pulsed with 10 ug/ml of the indicated peptides for 1 hour at 37° C., washed, and incubated for 0, 4, 8, 24, or 30 hours. Cells pulsed with transduction peptides were pre-incubated with a bGAL peptide to block any cell surface binding. The cells were then tested by ELISPOT for their ability to induce IFN-γ secretion from […]-specific T cells. Spot counts greater than 300/well could not be counted. *=sample not tested.
To further study the effect of coupling CTL epitopes to the hPER1 transduction domain, the following in vitro assay was developed to assess the kinetics of antigen presentation following incubation of cells with peptide. In FIG. 11, splenocytes from C57BL/6 mice were incubated with different OVA-based peptides for 1 hour at 37° C. The cells were then washed to remove any residual free peptide, and incubated in culture medium at 37° C. for 0, 4, 8, 24 or 30 hours. The cells were then tested for their ability to stimulate IFN-γ production from […]-specific T cells by ELISPOT.

[8] = system: C57BL/6 mice; assay: i.v. injection of peptide-pulsed dendritic cells, CTL chromium release (FIG. 4); type: in vivo, mouse; conditions: 5×10^5 pulsed DCs i.v., one week post immunization, SIINFEKL-pulsed targets
Procedure: FIG. 4. CTL responses in C57BL/6 nice following intravenous (i.v.) injection of peptide-pulsed DCs. Mice were immunized i.v. with 5×10^5 bone marrow-derived DCs pulsed with the indicated peptides.
Consequently, we tested the ability of transcytosis peptides to generate CTL responses in the context of a DC-based vaccine. Murine bone marrow derived dendritic cells were matured in vitro, pulsed with either […] alone, conjugated with either Tat or hPER1 with or without linkers, and were injected intravenously in the tail vein of C57BL/6 mice. One week post immunization, the splenocytes from vaccinated animals were tested for CTL activity following in vitro restimulation.

[9] = system: RMA cells; assay: Sensitization of RMA target cells for CTL lysis, chromium release assay; type: cell-based, mouse; conditions: 10 pg/ml peptide, 1 hour at 37° C., 4-hour chromium release, T cells of influenza-immunized C57BL/6 mice
Procedure: as §1
To determine whether hPER1-CTL conjugates can form CTL target structures, ^51Cr-labeled RMA cells were pulsed with 10^−11 g/ml NP peptide ([…]) or hPER1-NP peptide ([…]), or were left untreated (no peptide) and incubated for 1 hour at 37° C. The cells were then washed and tested for CTL recognition in a standard 4-hour chromium release assay, using T cells obtained from the spleens of C57BL/6 mice immunized with influenza virus.

[10] = system: Splenocytes from C57BL/6 mice; assay: In vitro analysis of NP peptide presentation, IFN-γ ELISPOT (FIG. 12); type: cell-based, mouse; conditions: 10 ug/ml pulse 1 hour; for duration of ability of pulsed cells to stimulate T cells: incubation up to 120 hours (limit of the assay)
Procedure: FIG. 12. In vitro analysis of NP peptide presentation. Splenocytes from C57BL/6 mice were pulsed with 10 ug/ml of the indicated peptides for 1 hour at 37C., washed, and incubated for 0, 24, 72, or 120 hours. Cells were then tested by ELISPOT for their ability to induce IFN-γ secretion from NP-specific T cells.
FIG. 12 illustrates a similar analysis performed using the NP system.

[11] = system: HLA-A2/Kb transgenic mice; assay: s.c. peptide immunization, gp100-154 CTL chromium release (FIG. 5); conditions: 50 ug s.c., boosts days 21 and 42, day 63
Procedure: CTL responses in HLA-A2/Kb transgenic mice following subcutaneous (s.c.) injection of peptide. Mice were immunized s.c. with 50 ug of the indicated peptides and boosted on days 21 and 42 following the first injection. Splenocytes from immunized animals were harvested on day 63 post immunization, re-stimulated with the native gp100-154 peptide for 5 days, and tested for CTL activity in a standard chromium release assay using target cells pulsed with gp100-154 peptide.
Furthermore, CTL responses were assessed in HLA-A2/K^b transgenic mice (Sherman strain) following s.c. immunization with gp100-154 peptide alone, conjugated to hPER1 or AntpHD with or without linker FVYVW. Mice were boosted on days 21 and 42 and splenocytes from vaccinated animals were harvested on day 63 and tested for CTL activity after 5 days of restimulation in vitro.

[12] = grades − to + + + +, key not given

## RQIKIWFQNRRMKWKKLKTWGQYWQV [AntpHD, linker L, gp100-154]
[1]; [12]
  Immunogenicity in mice: + + +

## RRHHRRSKAKRSRYLEPGPVTV [hPER1-280-9V]
[2]; 5 μg/ml brefeldin A in the assay
  level of CTL killing of peptide-pulsed target cells treated with brefeldin A: reduced
[2]; 10^−6 g/ml peptide, 1 hour at 37° C., 4-hour chromium release
  sensitization of P815-A2/K^b target cells for CTL recognition: can be sensitized
[3]
  induction of 280-9V-specific human CTLs: can be induced
[4]
  peptide-specific CTL responses: can be induced

## RRHHRRSKAKRSRFVYVWSIINFEKL [hPER1, linker FVYVW, OVA]
[5]; FIG. 10
  cytotoxicity levels, adjuvant free immunization: comparable
[1]; [12]
  Immunogenicity in mice: + + + +

## KTWGQYWQV [reference compound]
[6]; listed as 154
  CTL responses / cytotoxicity at three weeks and three months: did not induce cytotoxicity at either three weeks or three months; also recorded: does not generate significant CTL responses

## RRHHRRSKAKRSRDEVWELSIINFEKL [hPER1, linker DEVWEL, OVA]
[5]; FIG. 10
  cytotoxicity levels, adjuvant free immunization: comparable
[5]
  CTL responses / cytotoxicity, Tat versus hPER1 conjugates: gave the best CTL responses as compared to the positive control SIINFEKL in IFA
[5]; listed as hPER1-DEVWEL-SIINFEKL
  CTL responses / cytotoxicity, Tat versus hPER1 conjugates: induced a greater level of cytotoxicity as compared to Tat-DEVWEL-SIINFEKL at all E:T ratios tested
[1]; [12]
  Immunogenicity in mice: + + + +

## YGRKKRRQRRRDEVWELSIINFEKL
[7]
  stimulatory activity of pulsed cells after 30 hours: no reduction in activity
[1]; mouse, in vivo
  Immunogenicity in mice: + + +

## RRHHRRSKAKRSRFVYVWKTWGQYWQV [hPER1, linker FVYVW, gp100-154] [listing 1 of 2 here]
[6]; 50 nmol peptide plus 50 nmol helper peptide, intradermal, subcutaneous or intranasal
  CTL responses by different routes of immunization: can be generated through different routes of immunization
[6]; intranasal, 10 nmoles, absence of helper peptide
  cytotoxicity at 10 nmoles without helper peptide: does not induce significant cytotoxicity
[6]; intranasal, in the absence of helper peptide
  T cell cytotoxicity, without helper peptide: induced much lower levels of cytotoxicity
[6]; intranasal, in the presence of helper CD4 hepatitis B peptide
  T cell cytotoxicity, with helper peptide: induced significant T cell cytotoxicity
[6]
  CTL responses / cytotoxicity at three weeks and three months: induced cytotoxicity that was detectable for at least three months
[6]; s.c., 3 months, 4 mice/group
  mice with long-term T cell responses: ¾
[6]; s.c., 3 weeks, 4 mice/group
  mice with short-term T cell responses: 4/4

## RRHHRRSKAKRSRSGQLSIINFEKL [hPER1, linker SGQL, OVA]
[5]; intradermal, different doses, absence of helper peptide, FIG. 9
  T cell responses without helper peptide at higher peptide dose: can induce T cell responses in mice
[7]
  stimulatory activity of pulsed cells after 30 hours: no reduction in activity

## GYGRKKRRQRRR-LEQLE-SIINFEKL
[8]
  CTL responses after peptide-pulsed DC vaccine: less immunogenic than TAT-SIINFEKL without linker

## GRRHHRRSKAKRSRASNENMETM [hPER1, no linker, flu NP366-374]
[9]
  sensitization of RMA target cells for CTL-mediated lysis: can be sensitized for CTL-mediated lysis
[10]
  duration of ability of pulsed cells to stimulate T cells: retain their ability to stimulate T cells out to five days

## RRHHRRSKAKRSRSVYDFFVWL [hPER1, no linker, TRP-2]
[1]; [12]
  Immunogenicity in mice: + +

## ASNENMETM [reference compound]
[10]; IFN-γ ELISPOT with NP-specific T cells
  stimulatory activity of pulsed cells after 24 hours of incubation: shows a loss in activity

## RQIKIWFQNRRMKWKKTWVGQYWQV
[11]
  CTL responses against gp100-154: a weak response was observed

## RRHHRRSKAKRSRFVYVWSVYDFFVWL [hPER1, linker FVYVW, TRP-2]
[1]; [12]
  Immunogenicity in mice: + + +

## RRHHRRSKAKRSRLSVYDFFVWL [hPER1, linker L, TRP2]
[1]; [12]
  Immunogenicity in mice: + +

## RRHHRRSKAKRSRSIINFEKL [hPER1, no linker, OVA]
[8]
  CTL responses after peptide-pulsed DC vaccine: generated a stronger response than either DCs pulsed with native SIINFEKL peptide or hPER1-LEQLE-SIINFEKL

## SIINFEKL [reference compound]
[5]; administered with incomplete Fruend's adjuvant, FIG. 10
  cytotoxicity levels, peptide in IFA: comparable
[7]; IFN-γ ELISPOT with SIINFEKL-specific T cells
  incubation time by which pulsed cells lose their stimulatory capacity: ≤ 24 h

## RRHHRRSKAKRSRRGVQIASNENMETM [hPER1, linker RGVQI, flu NP366-374]
[10]
  duration of ability of pulsed cells to stimulate T cells: retain their ability to stimulate T cells out to five days

## RRHHRRSKAKRSRFVYVWKTWGQYWQV [hPER1, linker FVYVW, gp100-154] [listing 2 of 2 here]
[1]; mouse, in vivo
  Immunogenicity in mice: + + + +

## RQIKIWFQNRRMKWKKFVYVWKTWGQYWQV [AntpHD, linker FVYVW, gp100-154]
[1]; [12]
  Immunogenicity in mice: + + + +

## SVYDFFVWL [TRP2 peptide, unconjugated, reference compound]
[8]
  CTL responses after peptide-pulsed DC vaccine: non immunogenic
[1]; [12]
  Immunogenicity in mice: + +
